Assay results: US20250176598A1, “AMIDE COMPOUNDS AND THEIR USE AS FLAVOR MODIFIERS” (Firmenich Incorporated, priority 2022, published 2025)

Biological target: T1, T1R umami taste receptor (Homo sapiens, UniProt Q7RTX0+Q7RTX1)
T1 sequence (Q7RTX1 21-841): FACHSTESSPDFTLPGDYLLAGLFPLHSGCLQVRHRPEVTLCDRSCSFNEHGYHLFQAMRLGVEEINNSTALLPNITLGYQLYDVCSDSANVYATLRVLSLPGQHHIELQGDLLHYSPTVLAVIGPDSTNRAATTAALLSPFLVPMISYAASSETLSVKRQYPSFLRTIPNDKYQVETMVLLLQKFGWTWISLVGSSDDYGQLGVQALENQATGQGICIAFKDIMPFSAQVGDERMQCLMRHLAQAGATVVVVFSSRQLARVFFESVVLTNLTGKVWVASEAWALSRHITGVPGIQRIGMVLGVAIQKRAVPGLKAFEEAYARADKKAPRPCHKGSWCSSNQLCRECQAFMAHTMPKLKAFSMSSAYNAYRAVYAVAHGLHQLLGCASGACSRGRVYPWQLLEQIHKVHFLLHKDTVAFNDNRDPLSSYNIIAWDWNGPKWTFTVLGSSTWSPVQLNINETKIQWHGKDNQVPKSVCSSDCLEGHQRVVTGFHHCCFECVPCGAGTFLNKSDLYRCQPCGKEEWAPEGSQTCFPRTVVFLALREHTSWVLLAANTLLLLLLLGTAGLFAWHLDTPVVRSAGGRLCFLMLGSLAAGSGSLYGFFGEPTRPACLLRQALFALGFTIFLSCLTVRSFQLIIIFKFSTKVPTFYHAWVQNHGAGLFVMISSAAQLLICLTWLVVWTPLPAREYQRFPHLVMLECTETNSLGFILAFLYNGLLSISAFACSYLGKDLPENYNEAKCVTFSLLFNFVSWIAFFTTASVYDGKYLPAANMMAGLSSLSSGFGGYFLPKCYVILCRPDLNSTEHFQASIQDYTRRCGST
T1 sequence (Q7RTX0 21-852): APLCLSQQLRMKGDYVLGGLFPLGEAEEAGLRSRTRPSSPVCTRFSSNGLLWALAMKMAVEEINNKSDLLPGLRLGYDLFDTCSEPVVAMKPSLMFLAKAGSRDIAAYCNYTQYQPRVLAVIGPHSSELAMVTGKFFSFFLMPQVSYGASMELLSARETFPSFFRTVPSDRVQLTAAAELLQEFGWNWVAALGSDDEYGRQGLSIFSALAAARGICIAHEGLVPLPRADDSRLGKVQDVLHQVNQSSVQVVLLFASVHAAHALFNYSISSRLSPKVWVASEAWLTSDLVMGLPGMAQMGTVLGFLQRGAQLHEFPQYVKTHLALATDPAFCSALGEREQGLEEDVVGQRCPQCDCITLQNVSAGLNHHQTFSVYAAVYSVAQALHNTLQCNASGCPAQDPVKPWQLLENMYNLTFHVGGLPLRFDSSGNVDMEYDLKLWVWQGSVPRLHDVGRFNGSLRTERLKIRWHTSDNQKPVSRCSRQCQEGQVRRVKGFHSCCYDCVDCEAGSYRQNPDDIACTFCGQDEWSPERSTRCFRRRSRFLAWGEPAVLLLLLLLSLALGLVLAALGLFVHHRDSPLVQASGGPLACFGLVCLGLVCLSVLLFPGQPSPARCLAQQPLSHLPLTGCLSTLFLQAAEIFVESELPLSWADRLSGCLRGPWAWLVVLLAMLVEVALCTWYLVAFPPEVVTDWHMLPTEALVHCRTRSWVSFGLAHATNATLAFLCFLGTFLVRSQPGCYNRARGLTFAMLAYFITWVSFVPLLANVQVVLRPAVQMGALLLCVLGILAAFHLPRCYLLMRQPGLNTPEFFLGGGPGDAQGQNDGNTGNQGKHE
Assay: in vitro cell-based assay, cells expressing the T1R umami taste receptor; enhancement of MSG
Details: for EC50: cells that express the T1R umami taste receptor, dose-binding curves; for MSG Enh. Ratio: MSG enhancement ratio at a particular concentration (concentration not given)
Method: Each of Compounds 101-145 was synthesized according to one of the general procedures set forth above in Examples 1 and Example 2. Thereafter, the compounds were tested in an in vitro cell-based assay having cells that express the T1R umami taste receptor. Dose-binding curves were recorded and the EC50 was determined for enhancement of MSG binding. Table 2 sets forth the calculated EC50 values for certain tested compounds as well as the MSG enhancement ratio at a particular concentration.

Row | Structure (SMILES) | EC50 [µM] | MSG Enh. Ratio
1 | COc1ccc(/C=C/C(=O)N[C@H](C(=O)O)C(C)C)cc1 [Compound 136, (E)-(3-(4-methoxyphenyl)acryloyl)-L-valine] | > 50 | 
2 | COc1ccc(/C=C/C(=O)N[C@H](CC(C)C)C(=O)O)cc1 [Compound 137, (E)-(3-(4-methoxyphenyl)acryloyl)-D-leucine] | 7.74 | 4.7
3 | COc1ccc(/C=C/C(=O)N[C@@H](CC(C)C)C(=O)O)cc1 [Compound 138, (E)-(3-(4-methoxyphenyl)acryloyl)-L-leucine] | > 50 | 1.0
4 | CC[C@H](C)[C@H](NC(=O)/C=C/c1ccc(OC)cc1)C(=O)O [Compound 139, ((E)-3-(4-methoxyphenyl)acryloyl)-L-isoleucine] | > 50 | 1.5
5 | COc1ccc(/C=C/C(=O)N[C@@H](Cc2ccc(OC)cc2)C(=O)O)cc1 [Compound 140, (S,E)-3-(4-methoxyphenyl)-2-(3-(4-methoxyphenyl)acrylamido)propanoic acid] | > 50 | 1.8
6 | COc1ccc(C[C@H](NC(=O)/C=C/c2ccc(OC)c(OC)c2)C(=O)O)cc1 [Compound 141, (S,E)-2-(3-(3,4-dimethoxyphenyl)acrylamido)-3-(4-methoxyphenyl)propanoic acid] | > 50 | 1.6
7 | COc1ccc(/C=C/C(=O)N[C@@H](CCC(=O)O)C(=O)O)cc1 [Compound 142, (E)-(3-(4-methoxyphenyl)acryloyl)-L-glutamic acid] | > 50 | 2.2
8 | COc1ccc(/C=C/C(=O)N[C@@H](CCC(=O)O)C(=O)O)cc1O [Compound 143, (E)-(3-(3-hydroxy-4-methoxyphenyl)acryloyl)-L-glutamic acid] | > 50 | 1.0
9 | COc1ccc(/C=C/C(=O)N[C@H](CCC(=O)O)C(=O)O)cc1O [Compound 144, (E)-(3-(3-hydroxy-4-methoxyphenyl)acryloyl)-D-glutamic acid] | > 50 | 
10 | CC(C)/C=C/C(=O)N[C@@H](CCC(=O)O)C(=O)O [Compound 145, (E)-(4-methylpent-2-enoyl)-L-glutamic acid] | > 50 | 1.0
